Each structure is given as a SMILES string. Where two headings read alike, the source gives them in different places.

For data set [1], the system named is Rabbits. To be noted: rabbit, in vivo.
Test in data set [2]: not given
This is another data set of the same source.

For the compound `CC(C)O` [Isopropanol, isopropanol], the “classification as primary irritant or corrosive by dermal application” value in data set [1] was “neither pure isopropanol nor aqueous isopropanol are classified as primary irritants or as corrosives”.

As to `CC(C)(C)NCC(O)c1cc(O)cc(O)c1` (stereo not drawn) [Terbutaline, terbutaline], the “Terbutaline Flux” value (pH 3.8) is recorded as 0.1 mcg/cm^2 /hr; the “Terbutaline Flux” value (pH 4.2) is 4.1 mcg/cm^2 /hr; the “Terbutaline Flux” value in data set [2] (pH 3.8) is reported as 0.1 mcg/cm^2 /hr; the “Terbutaline Flux” value in data set [2] (pH 4.4) is reported as 16.3 mcg/cm^2 /hr; the “Terbutaline Flux” value in data set [2] (pH 4.6) is given as 12.8 mcg/cm^2 /hr; the “Terbutaline Flux” value in data set [2] (pH 4.9) turned out to be 16.1 mcg/cm^2 /hr. Moreover, the “Terbutaline Flux” value in data set [2] (pH 5) is on record as 5.3 mcg/cm^2 /hr. Besides, the “relative flux (flux in water case as unity)” value (from here on “relative flux”) (pH 3.8) is on record as 1; the “relative flux” value (pH 4.2) was found to be 40; the “relative flux” value in data set [2] (pH 3.8) turned out to be 1; the “relative flux” value in data set [2] (pH 4.4) is reported as 163; the “relative flux” value in data set [2] (pH 4.6) was found to be 128; the “relative flux” value in data set [2] (pH 4.9) is 161. Besides, in data set [2] (pH 5), the “relative flux” value amounted to 53.

The values above are taken from patent US5374645A (Ciba-Geigy Corporation, priority 1993, dated 1994).
